In PubChem BioAssay AID449764 (Southern Research Specialized Biocontainment Screening …, 2010):

Tested on: Mycobacterium tuberculosis H37Rv growth inhibition, no glycerol
Test: Confirmatory growth inhibition assay, Mycobacterium tuberculosis H37Rv, absence of glycerol (AID 449764);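 note: growth read after 7 days of incubation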
Settings: for IC90: measured here: IC90 growth inhibition

Structure (SMILES)	IC50 [µM]	IC90 [µM]
O=C(NC1CCCCC1)C(c1cccs1)N(CCCN1CCOCC1)C(=O)c1ccc(-c2ccccc2)[nH]1 (stereo not drawn)	51.3	86.4
CSCCCNC(=S)N1CCN(c2ccc(C(C)=O)cc2)CC1	37.2	49.7
CC(=O)N(Cc1ccc(F)cc1)C1=C(NCCc2ccccc2)C(=O)c2ccccc2C1=O	10.2	16.6
O=C(CSC1=NC(=O)C(c2ccccc2)C(=O)N1)Nc1ccccc1Cl (stereo not drawn)	7.27	24.2
Cc1ccc(C)c(NC(=O)c2cc(-c3ccccc3)nn2-c2ccccc2)c1	34.6	55.9
C#CCn1c(=NC(=O)c2cc(Cl)sc2Cl)sc2cc(S(N)(=O)=O)ccc21	12	34.1
CN(Cc1ccco1)c1ncnc2ccc(-c3ccc4c(ccn4C)c3)cc12	40.9	59.4
Cc1ccc(NC(=O)Cn2ccsc2=N)c([N+](=O)[O-])c1	18.5	34.7
CCOc1ccc(-c2cc(C(=O)NCCCn3ccnc3)c3cc(Br)ccc3n2)cc1	24.9	27.6
CC1CCCC(NC(=O)NC(=O)CCl)C1C (stereo not drawn)	8.62	14.3
COc1cccc(/C=N/Nc2nc(Nc3ccccc3)nc(-n3nc(C)cc3C)n2)c1O	< 0.2	0.25
CCCc1ccc2oc(C(=O)N(C)Cc3nccs3)c(C)c2c1	45	68.3
O=C(c1cc2nc(-c3ccc(F)cc3)cc(C(F)(F)F)n2n1)N1CCCCC1c1cccnc1 (stereo not drawn)	20.7	29.2
CCOC(=O)c1ccc(-n2c(CCC(=O)O)ccc2-c2cccs2)cc1	20.8	23.6
Cc1ccc(CN2CCN(/N=C/c3ccc(Cl)c([N+](=O)[O-])c3)CC2)cc1	39.4	55.3
Cc1ccc(C(=O)Sc2cccccc2=O)cc1	1.53	2.12
O=c1oc(-c2cccs2)nc2c1cnn2-c1ccccc1	–	> 100
Cc1cc2c(ccc3c2no[n+]3[O-])nn1	17.4	22.8
CCOc1ccc(N2C=Nc3ccc(OCC)cc3C2)cc1	79.2	> 100
COc1ccc(OC)c(Nc2nc(-c3sc(C)nc3C)cs2)c1	70.1	> 100
CNC[C@H](Cc1cccc2ccccc12)NC[C@H](CCSC)NCC1CCC(C(C)(C)C)CC1 (stereo partly drawn)	42.6	47.1
COC(=O)CSc1[nH]c2ccc(Br)cc2c1[N+](=O)[O-]	15.1	25

Structure (SMILES)	IC50 [µM]	IC90 [µM]
COC(=O)c1c(NC(=O)C(=O)N2CCCC2)sc2c1CC(C)(C)OC2	65.3	> 100
CC(C)(C)NC(=O)C(c1c[nH]c2ccccc12)N(C(=O)Cn1nnc(-c2ccc(F)cc2)n1)c1cccc(O)c1 (stereo not drawn)	34.7	45.6
O=C1C2(Cl)C3(Cl)C4(Cl)C(Cl)(Cl)C5(Cl)C3(Cl)C1(Cl)C5(Cl)C24Cl (stereo not drawn)	44.4	65.2
Cc1c(CCC(=O)NCCCn2ccnc2)c(=O)oc2c(C)c3occ(C(C)(C)C)c3cc12	28	37.6
CCc1ccc(-c2csc(-c3c[nH]c4ccccc34)n2)cc1	17.1	21.3
CN1CCN(C2Cc3ccccc3Sc3cc(C(F)(F)F)ccc32)CC1 (stereo not drawn)	14	17.4
N#C/C(=C\c1ccc(-c2ccc(Br)cc2)o1)C(=O)NCCc1c[nH]c2ccccc12	97.5	> 100
Cc1cc(=O)n2[nH]c(Nc3cccc(Cl)c3)nc2n1	29.1	68
Cc1cccc(C(=O)NNC(=S)NC(=O)c2ccccc2)c1	1.56	2.69
COc1ccc(C2=NN(C(=O)COC(=O)c3ccc(S(C)(=O)=O)c([N+](=O)[O-])c3)C(c3ccco3)C2)cc1 (stereo not drawn)	18.3	26.9
COc1ccccc1NC(=O)c1ccc(NC(=O)CSc2nnnn2C)cc1	11.7	21.6
Cc1ccc(S(=O)(=O)n2ccc3c(OCCOCCNCc4ccc(F)cc4)cccc32)cc1	23	26
Cc1ccc(S(=O)(=O)/N=C(\CCl)N2CCOCC2)cc1	18.6	27.5
Cc1ccccc1CSc1nsc(N)n1	9.03	24.1
Cc1cccc(/C=C/c2onc(C)c2[N+](=O)[O-])n1	20.2	26.8
O=C(CSC1=Nc2ccccc2C2=NC(c3ccccc3)C(=O)N12)NC1CCCCC1 (stereo not drawn)	1.03	1.73
CC(C)(C)C(=O)N1CCN(c2ccc(NC(=O)c3ccc([N+](=O)[O-])o3)cc2)CC1	< 0.2	1.93
O=C(NC1CCN(Cc2ccccc2)CC1)c1cccc(S(=O)(=O)Nc2ccc(SC(F)F)cc2)c1	19.3	27.9
Cc1cc(N/N=C2/CCCc3ccccc32)nc2ccccc12	41.9	45.6
CC(C)(C)c1ccc(C(=O)NC(=S)NNC(=O)COc2ccccc2)cc1	28.8	42.9
O=C(/C=C/Sc1ncn[nH]1)c1ccc(Cl)cc1	34.7	55.1
Cc1nc(NC(=O)CC(C)C)sc1-c1csc(Nc2ccc(Cl)cc2Cl)n1	40.2	83.7

Structure (SMILES)	IC50 [µM]	IC90 [µM]
CN(C)c1ccc(N=Nc2ccccc2C(=O)OCC(=O)NCC2CCCCC2)cc1	22.1	24.9
CC(C)(C)C(=O)/C(=C\c1cccc([N+](=O)[O-])c1)n1cncn1	3	3.41
Nc1cc(Cl)c2nonc2c1[N+](=O)[O-]	9.11	11.7
Cc1ccnc(NC(=O)CCc2c[nH]c3ccccc23)c1	21.5	31.9
NNC(=S)Nc1ccccc1Cl	83.8	93
C=C(CCC(=O)c1ccccc1)C(=O)c1ccccc1	18	25.1
O=C(c1cc2ccccc2o1)N1CCN(S(=O)(=O)c2ccc(Cl)s2)CC1	15.6	56
NC1=NC[C@H](CC2CCCCC2)N1CCc1cc(C(F)(F)F)cc(C(F)(F)F)c1	11.2	12.8
CSc1cccc(NC(=O)CCS(=O)(=O)c2cccc3nonc23)c1	5.57	9.26
O=c1c(Cl)c2oc3ccccc3nc-2c2ccccc12	12.1	17.9
CCCOC(=O)/C(=C\c1ccc([N+](=O)[O-])o1)NC(=O)c1ccccc1	24.2	> 100
CCC1C(c2ccccc2)N(C)C(c2ccccc2)CC1(O)c1ccccc1 (stereo not drawn)	23.9	27.6
O=C(Nc1cccnc1Cl)c1cc(-c2ccco2)on1	38.4	> 100
CC(C)CCNC(=O)C(c1ccc(O)cc1)N(C(=O)C1COc2ccccc2O1)c1cccc(O)c1 (stereo not drawn)	71.6	> 100
S=C(NCc1ccc(Cl)cc1)NC12CC3CC(CC(C3)C1)C2	3.83	28.1
Cc1cccc(/C=C/C(=O)c2ccc([N+](=O)[O-])o2)c1	< 0.2	< 0.2
COc1ccc(N(CC(=O)Nc2ccccc2C(N)=O)S(=O)(=O)c2ccc(C)c([N+](=O)[O-])c2)cc1	96.9	> 100
CN1CCN(CC(=O)N2CCn3c4c(c5cc(C6CCCCC6)ccc53)CCCC42)CC1 (stereo not drawn)	18	21.6
CCOC(=O)c1sc2ncnc(NCC(c3cccs3)N(C)C)c2c1C (stereo not drawn)	42	57
COc1ccccc1OC(=O)c1ccc(S(=O)(=O)N(C)C)cc1	16.4	35.8
C=CCn1c(O)c(N=Nc2ccccc2O)c2ccccc21	16.4	22.4
CCC(=O)c1ccc(OCC(O)CN2CCN(c3cccc(C(F)(F)F)c3)CC2)cc1 (stereo not drawn)	19.7	26.7

Structure (SMILES)	IC50 [µM]	IC90 [µM]
O=C1NCN(c2ccccc2)C12CCN(CCCC(c1ccc(F)cc1)c1ccc(F)cc1)CC2	43.2	49.2
Oc1ccccc1-c1nnc(COc2ccccc2)o1	19	28.9
CC1(C)CC(=O)C2=C(C1)OC(N)=C([N+](=O)[O-])C2c1ccc(C#N)s1 (stereo not drawn)	79.7	97.7
O=C(/C=C/c1cccnc1)c1cccc(O)c1	22.4	24.1
CCOC(=O)COc1ccc(/C=C2\NC(=S)N(CC)C2=O)cc1	3.1	3.44
O=C(NCC1CC1)c1cc([N+](=O)[O-])cc([N+](=O)[O-])c1	6.57	11.2
Cc1ccc2nc(-c3cccc(Br)c3)cc(C(=O)NC3=NCCS3)c2c1	27.8	43.2
O=C(CCS(=O)(=O)c1ccc(F)cc1)Nc1nc(-c2ccccn2)cs1	12.8	29.1
CCO[C@H]1OC(C(=O)NCc2nc3ccccc3[nH]2)=C[C@@H](c2csc3ccccc23)[C@@H]1CCCO	36.5	49.2
COC1=CC(=O)c2ccccc2C1=O	22.8	24.6
Cc1oc2c(c1C(=O)NCc1cccnc1)C(=O)c1ccccc1C2=O	12.3	14.2
Cc1cc2[nH]c3c(c[n+](C)c4ccccc34)c2cc1C	9.9	15.6
CCc1nc2ccccc2c(C(=O)Nc2cc(C)ccc2C)c1C	–	> 100
C/C(CC(=O)Nc1ccc(Cl)cc1C(F)(F)F)=N\NC(N)=S	15.9	20.1
Cc1cc(C)nc(-n2nc(C)cc2NC(=O)CN2CCC(C)CC2)n1	16.4	35.3
CCCCC(=O)Nc1sc2c(c1C(=O)OCC)CCC(C=O)=C2Cl	38.8	> 100
COc1cc(-c2ccc3oc(-c4ccsc4)cc(=O)c3c2)cc(OC)c1OC	38.1	53.6
COc1ccc(C2(c3ccc(OC)cc3)NC(=O)N(CC(=O)Nc3ccc(OC(F)F)cc3)C2=O)cc1	25	53.9
CCCCCC1CC(CC(=O)NC(=S)Nc2ccc([N+](=O)[O-])cc2)C(=O)O1 (stereo not drawn)	–	> 100
Cc1cc(-c2cc(-c3ccccc3)on2)nc(NC2CCCC2)n1	34.5	56.6
CCN(Cc1ccccc1)c1ccc(/C=N/N=C(N)N)cc1	18.8	28.1
C=CCN(C(=O)CSc1nc2c(sc3ccccc32)c(=O)n1CCN(CC)CC)c1ccccc1	30.8	38.8
